The nature of series [1]: Solubility in water and olive oil (Method III). The protocol:
a) Preparation of olive oil or aqueous solutions. 1 ml of olive oil or I ml of double-distilled water (or dilute NaOH pH=7.6) was added to 1 mg or 10 mg or 50 mg of the respective compound at 37° C. and it was checked whether a clear solution was obtained. The optionally centrifuged and decanted olive oil solutions were heated for 5 minutes using a Bunsen burner and the degree of browning of the olive oil was determined. […] Samples having poor protective action are given a (*) in the table (see below).

Series [2] deals with thrombus formation in rats. Kind of series: Laser-induced thrombosis in rats in vivo (Method VIII). Details: species or system rat. Particulars: 30 mg/kg oral, laser induction 60 min after administration. On the procedure: The experimental procedure was carried out in every detail as described in U.S. Pat. No. 4,694,024. Laser induction took place 60 min after oral administration of the antioxidants.

Series [3] in a line: Use as an additive in frying fat: color change of butter (Method II). Particulars: 1% (weight/weight) in butter. The protocol: Use as an additive in frying fat: Samples of commercially available German non-blended butter were melted and in each case 1% (weight/weight) of BHT (=butylated hydroxytoluene) or 2,6-di-tert.-butyl-4-(7-nonynoyl)-phenol [=compound according to Example 17] or ethyl 2-(3,5-di-tert.-butyl-4-hydroxybenzyl)-3-oxo-docosanoate [=compound according to Example 18] or N-octadecyl-DL-α-lipoic acid amide [=compound according to Example 52] was added and the mixture was used in the customary manner as frying fat. […] The better protective action of the […] probably comes about as a result of their lipophilic side chains and, therefore, improved lipophilic interaction. The advantageous action of N-octadecyl-DL-α-lipoic acid amide is particularly surprising, although this preparation has no recognizable antioxidative component.

A short description of series [4]: Inhibition of the oxidation of lipids: SA-PC in cyclohexane (Method IV). The following applies: 37° C., absorption at 234 nm. It is filed as biochemical. The protocol:
Oxidation of 1-stearoyl-2-arachidonoylphosphatidylcholine (SA-PC) in cyclohexane (37° C.). 100 mcl of a SA-PC solution (10 mg/ml of CHCl3) were evaporated by blowing (argon) and the residue was taken up in 1 ml of cyclohexane. After adding an amount of antioxidant which would also dissolve in olive oil (cf. Table 1), the absorption was measured at 234 nm (Perkin Elmer 5528 spektrophotometer, Uberlingan, FRG) and the solvent was then evaporated by blowing with air. After a fur%her 24 hours standing in an open vessel, the residue was again dissolved in i ml of cyclohexane and the absorption at 234 nm was measured as a measurement of the oxidized SA-PC.

Setting [5] is: olive oil, organic solvent or mixture.

Structures can show the parent of a compound that is named as a salt. A value given as a limit tells only on which side of the number the result lay.

One may read the solubility as how much of the substance goes into solution per volume.

Take `O=C(O)CCCC[C@@H](S)CCS` (racemic) [Dihydrolipoic acid, Na salt, Dihydrolipoic acid, reference compound]: the solubility is less than 100 µg/mL in series [1] (setting [5]) and greater than 10000 µg/mL in series [1] (water).
The like results for `O=C(O)C(S)C(S)C(=O)O` (centres unmarked) [2,3-Mercaptosuccinic acid, reference compound] were, in that order, less than 100 µg/mL and greater than 10000 µg/mL.
Consider `CC(C)(Sc1cc(C(C)(C)C)c(O)c(C(C)(C)C)c1)Sc1cc(C(C)(C)C)c(O)c(C(C)(C)C)c1` [4,4'-(Isopropylidenedithio)bis[2,6-di-tert.-butylphenol], reference compound], for which the “Reduction of thrombus formation” value in series [2] came to 6%.
As to `Cc1c(C)c2c(c(C)c1O)CCC(C)(C(=O)O)O2` (centres unmarked) [6-Hydroxy-2,5,7,8-tetramethylchroman-2-carboxylic acid, reference compound], the values for the solubility in series [1] (setting [5]) and in series [1] (water) were less than 100 µg/mL and greater than 10000 µg/mL, respectively.
The like results for `CCCCCCCCCCCCCCCC(=O)OC[C@H](O)[C@H]1OC(=O)C(O)=C1O` [Ascorbyl palmitate, reference compound] were, in that order, greater than 100 µg/mL and less than 100 µg/mL.
For the compound `Cc1cc(C(C)(C)C)c(O)c(C(C)(C)C)c1` [BHT, butylated hydroxytoluene, reference compound], the “color change of frying fat after the frying procedure” value (“color change of frying fat” below) in series [3] is given as “transformed into a viscous, dark brown material”. The solubility in series [1] (setting [5]) is greater than 10000 µg/mL; in series [1] (water), less than 100 µg/mL.
With `O[C@H](CS)[C@@H](O)CS` [Dithioerythritol, reference compound], the solubility in series [1] (setting [5]) is less than 100 µg/mL; in series [1] (water) it was greater than 10000 µg/mL.
With `Cc1c(C)c2c(c(C)c1O)CCC(C)(C(=O)NCCCNC(=O)CC[C@@H](C)[C@H]1CC[C@H]3[C@@H]4[C@H](O)C[C@@H]5C[C@H](O)CC[C@]5(C)[C@H]4C[C@H](O)[C@]13C)O2` (some centres unmarked) [Example 1], the “Reduction of thrombus formation” value in series [2] is 16%. Moreover, the solubility in series [1] (setting [5]) is greater than 10000 µg/mL; in series [1] (water) it was greater than 100 µg/mL.
On the same counts, the results for `Cc1c(C)c2c(c(C)c1O)CCC(C)(C(=O)NCCO[C@H]1CC[C@@]3(C)[C@@H](C1)C[C@@H](O)[C@@H]1[C@@H]3C[C@H](O)[C@]3(C)[C@@H]([C@H](C)CCC(=O)O)CC[C@@H]13)O2` (some centres unmarked) [Example 3] are 11%, greater than 1000 µg/mL and less than 100 µg/mL.
In the case of `CCCCCCNC(=O)C1(C)CCc2c(C)c(O)c(C)c(C)c2O1` (centres unmarked) [Example 4], the solubility in series [1] (setting [5]) is greater than 10000 µg/mL; in series [1] (water) it was greater than 100 µg/mL.
The like results for `CCCCCCC(=O)NCCCNC(=O)C1(C)CCc2c(C)c(O)c(C)c(C)c2O1` (centres unmarked) [Example 5] were, in that order, greater than 10000 µg/mL and less than 100 µg/mL.
As for `CCCCCCCCCCCCCCCCCCNC(=O)C1(C)CCc2c(C)c(O)c(C)c(C)c2O1` (centres unmarked) [Example 6], the solubility is greater than 10000 µg/mL in series [1] (setting [5]) and less than 100 µg/mL in series [1] (water).
The like results for `CCCCCCCCCCCCCCCC(=O)NCCCNC(=O)C1(C)CCc2c(C)c(O)c(C)c(C)c2O1` (centres unmarked) [Example 7] were, in that order, greater than 10000 µg/mL and less than 100 µg/mL.
On the same counts, the results for `Cc1c(C)c2c(c(C)c1O)CCC(C)(C(=O)NC1CCCCC1)O2` (centres unmarked) [Example 8] are greater than 10000 µg/mL and less than 100 µg/mL.
For `CC(C)CCC[C@@H](C)[C@H]1CC[C@H]2[C@@H]3CC=C4C[C@@H](OCCOCc5cc(C(C)(C)C)c(O)c(C(C)(C)C)c5)CC[C@]4(C)[C@H]3CC[C@]12C` [Example 13], in series [2], the “Reduction of thrombus formation” value is on record as 17%. Also, the values for the solubility in series [1] (setting [5]) and in series [1] (water) were greater than 50000 µg/mL and less than 100 µg/mL, respectively.
`CCCCCCC#CC(=O)c1cc(C(C)(C)C)c(O)c(C(C)(C)C)c1` [Example 17]: the “color change of frying fat” value in series [3] is recorded as “substantially lower color change”. The solubility is greater than 50000 µg/mL in series [1] (setting [5]) and less than 100 µg/mL in series [1] (water).
Regarding `CCCCCCCCCCCCCCCCCCCC(=O)C(Cc1cc(C(C)(C)C)c(O)c(C(C)(C)C)c1)C(=O)OCC` (centres unmarked) [Example 18, ethyl 2-(3,5-di-tert.-butyl-4-hydroxybenzyl)-3-oxo-docosanoate], the “color change of frying fat” value in series [3] is reported as “substantially lower color change”. The solubility was greater than 50000 µg/mL in series [1] (setting [5]) and less than 100 µg/mL in series [1] (water).
For the compound `CC(C)(C)c1cc(C2SCCC(CCCCC(=O)O)S2)cc(C(C)(C)C)c1O` (centres unmarked) [Example 19], the figures for the solubility in series [1] (setting [5]) and in series [1] (water) were greater than 50000 µg/mL and less than 100 µg/mL, respectively.
The like results for `CC(C)(C)OC(=O)CCCCC(CCSCc1cc(C(C)(C)C)c(O)c(C(C)(C)C)c1)SCc1cc(C(C)(C)C)c(O)c(C(C)(C)C)c1` (centres unmarked) [Example 20] were, in that order, greater than 50000 µg/mL and less than 100 µg/mL.
On the same counts, the results for `CCCCCCCCCCCCCCCCCCOCC(O)COCc1cc(C(C)(C)C)c(O)c(C(C)(C)C)c1` (centres unmarked) [Example 21] are greater than 50000 µg/mL and less than 100 µg/mL.
The like results for `CCCCCCCCCCCCCCCCCCOCC(CO)OC(=O)c1cc(C(C)(C)C)c(O)c(C(C)(C)C)c1` (centres unmarked) [Example 22] were, in that order, greater than 50000 µg/mL and less than 100 µg/mL.
Consider `CCCCCCCCCCCCCCCCCCOCC(O)COC(=O)c1cc(C(C)(C)C)c(O)c(C(C)(C)C)c1` (centres unmarked) [Example 23], for which the solubility in series [1] (setting [5]) is greater than 50000 µg/mL; in series [1] (water), less than 100 µg/mL.
The like results for `CCCCCCCCCCCCCCCCCCCC(O)C(Cc1cc(C(C)(C)C)c(O)c(C(C)(C)C)c1)C(=O)OCC` (centres unmarked) [Example 24] were, in that order, greater than 50000 µg/mL and less than 100 µg/mL.
On the same counts, the results for `CCCCCCCCCCCCCCCCCCCC(O)C(CO)Cc1cc(C(C)(C)C)c(O)c(C(C)(C)C)c1` (centres unmarked) [Example 25] are greater than 50000 µg/mL and less than 100 µg/mL.
On the same counts, the results for `CCCCCCCCCCCCCCCCCCCC1OC(C)(C)OCC1Cc1cc(C(C)(C)C)c(O)c(C(C)(C)C)c1` (centres unmarked) [Example 26] are greater than 50000 µg/mL and less than 100 µg/mL.
In the case of `CCCCCCCCCCCCCCCCCCCC(O)C(Cc1cc(C(C)(C)C)c(O)c(C(C)(C)C)c1)C(=O)O` (centres unmarked) [Example 27], the solubility in series [1] (setting [5]) was greater than 1000 µg/mL; in series [1] (water), greater than 10000 µg/mL.
The like results for `CCCCCCCCCCCCCCCCCCCC(=O)C(=Cc1cc(C(C)(C)C)c(O)c(C(C)(C)C)c1)C(=O)OCC` [Example 28] were, in that order, greater than 50000 µg/mL and less than 100 µg/mL.
In the case of `CC(C)CCC[C@@H](C)[C@H]1CC[C@H]2[C@@H]3CC=C4C[C@@H](OCCOC5=C(O)[C@@H]([C@@H](O)CO)OC5=O)CC[C@]4(C)[C@H]3CC[C@]12C` [Example 33], the “Reduction of thrombus formation” value in series [2] came to 13%. For the same compound, the solubility was greater than 1000 µg/mL in series [1] (setting [5]) and less than 100 µg/mL in series [1] (water).
On to `CCCCCCCCCCCCCCCCCC(=O)OC[C@H](O)[C@H]1OC(=O)C(OP(=O)(OCC)OCC)=C1O` [Example 34], for which the solubility is greater than 1000 µg/mL in series [1] (setting [5]) and less than 100 µg/mL in series [1] (water).
Take `CCCCCCCCCCCCCCCCCC(=O)OC[C@H](OC(=O)CCCCCCCCCCCCCCCCC)[C@H]1OC(=O)C(OP(=O)(OCC)OCC)=C1O` [Example 35]: the solubility is greater than 1000 µg/mL in series [1] (setting [5]) and less than 100 µg/mL in series [1] (water).
Consider `CCCCCCCCCCCCCCCCCCC(COCCOC1=C(O)C(C(O)CO)OC1=O)COCCOC1=C(O)C(C(O)CO)OC1=O` (centres unmarked) [Example 36], for which, in series [2], the “Reduction of thrombus formation” value came out at 17%. The “suitability for use in aqueous oil emulsions owing to solubility properties” value in series [1] was “outstandingly suitable for use in aqueous oil emulsions”. Besides, the solubility in series [1] (setting [5]) and in series [1] (water) was greater than 10000 µg/mL throughout.
For `CCCCCCCCCCCCCCCCCCP(=O)(OC1=C(O)C([C@@H](O)CO)OC1=O)OC1=C(O)C([C@@H](O)CO)OC1=O` (some centres unmarked) [Example 37], the solubility was greater than 1000 µg/mL in series [1] (setting [5]) and greater than 10000 µg/mL in series [1] (water).
On the same counts, the results for `CC(C)CCCC(C)C1CC[C@H]2C3CC=C4CC(OC(=O)CCCCC(S)CCS)CC[C@]4(C)[C@H]3CC[C@]12C` (some centres unmarked) [Example 46] are greater than 50000 µg/mL and less than 100 µg/mL.
On the same counts, the results for `CC(CCC(=O)NCCCNC(=O)CCCCC(S)CCS)C1CC[C@H]2C3CC[C@@H]4C[C@H](O)CC[C@]4(C)[C@H]3C[C@H](O)[C@]12C` (some centres unmarked) [Example 48] are greater than 50000 µg/mL and less than 100 µg/mL.
For `CCCCCCCCCCCCCCCCCCOC(=O)CCCCC(S)CCS` (centres unmarked) [Example 50], the “prevention of the oxidation of SA-PC, reduced dithiol vs. corresponding oxidized dithio compounds” value in series [4] is recorded as “possible to prevent the oxidation of SA-PC Just as effectively”. The solubility is greater than 50000 µg/mL in series [1] (setting [5]) and less than 100 µg/mL in series [1] (water).
Turning to `CC(C)CCCC(C)C1CC[C@H]2C3CC=C4CC(OC(=O)CCCCC5CCSS5)CC[C@]4(C)[C@H]3CC[C@]12C` (some centres unmarked) [Example 53], the solubility was greater than 50000 µg/mL in series [1] (setting [5]) and less than 100 µg/mL in series [1] (water).
On to `O=C(O)c1cc(O)c(O)c(O)c1` [Gallic acid, reference compound], for which the solubility is less than 100 µg/mL in series [1] (setting [5]) and greater than 10000 µg/mL in series [1] (water).
